Read-outs that look alike come from different tables or passages of the source. Marks after values point to notes of the source that are not given here.
What was measured:
mice [1] = experiment: Cross maze exploratory behavior, HEF and LEF mice; type: in vivo; details: i.p. once a day 5 days, Compounds 1 and 4 100 mg/kg, Piracetam 200 mg/kg
HSP70 = HSP70 expression in the myocardium (Western blot); type: in vivo, rats; details: for increase of NSP70 level in the myocardium vs Ns control: negative stress state; for increase of NSP70 content in the heart vs untreated control: no stress; for HSP 70 in myocardium: Wistar rats
From the text: Determination of NSP70 (ng/mg of total protein) was studied in myocardial preparations by Western blot analysis; the results are presented in Table 14.1.

[2] = Distribution by internal organs after oral administration (GLC); type: in vivo; details: rats, 100 mg/kg orally; for concentration at 0.25 h / concentration at 0.5 h / concentration at 1 h / concentration at 1.5 h / concentration at 2 h / concentration at 4 h / concentration at 6 h / concentration at 8 h: both sexes, outbred white, rat, po; for concentration at 0.5 h: 0.50 h; for concentration at 1.5 h: 1.50 h
Description: The degree of tropism of the compound in various organs by quantitative content varies and is arranged in descending order as follows: liver, kidneys, heart, and brain. Rapid penetration into the brain confirms the good kinetic ability to penetrate through the blood-brain barrier. In 15 minutes, its presence is detected in the brain, heart, liver and kidneys. In the brain, liver and kidneys, the maximum concentration is achieved in an hour, and 6 hours after oral administration the compound is not detectable any more. […] The maximum concentration of Phenotropil in the myocardium is detected later than in the brain, but it is eliminated from the myocardium also two hours later. In the liver, the maximum concentration is found after an hour and then the concentration is gradually decreasing. One hour after administration, the concentration in the kidneys reaches the maximum, with a gradual decrease further on.

mice [3] = experiment: Tremor caused by arecoline; type: in vivo; details: for Duration of tremor: mice, arecoline 25 mg/kg
From the text: Studies have been conducted on white outbred male mice (18-24 g), in comparison with the olanzapine (Zyprexa) with intraperitoneal injection.

mice [4] = details: animals; prior art Phenotropil products; cited from earlier work
rats = experiment: Alcohol dependence and abstinence, free choice of water and alcohol; type: in vivo
From the text: The antitoxic, sobering and anticraving, activity, as well as the effect of Phenotropil in abstinence was studied on white outbred male rats (weighing 180-220 g) and male mice (weighing 18-24 g) in chronic alcoholism. […] Alcoholized rats after four months of alcoholism and treatment with Phenotropilom voluntarily give up intake of alcohol (anticraving activity) with free choice of water and alcohol (Table 11).

women = experiment: Skin aging, vessels and joints, topical solution and creams; type: in vivo, human; details: for Efficacy in % relative to baseline control (skin aging) / Efficacy in % (skin aging) / Efficacy expressed in % (age-related changes of blood vessels and joints) / Efficacy expressed in % (skin aging): humans, topical course; for Efficacy in % (skin aging): baseline control = 100.0; for Efficacy expressed in % (age-related changes of blood vessels and joints) / Efficacy expressed in % (skin aging): baseline control = 100
Description: Example 24 presents the results of research of Phenotropil as parapharmaceutic—cosmeceutical agents in women (age 53-60 years) and as a standard solution. The 0.1% water solution (distilled water) of Phenotropil and placebo was prepared; for convenience of preparing therapeutic cream formulation, the standard composition of cream base was used, or actual creams “Vecher”, “Lux” and “Gerantol” manufactured by “Svoboda” (Russia) were used as the base, with 100, 200, 300 mg of Phenotropil per 100 g of finished compositions to prepare a cosmeceutical agent. The cosmeceutical formulations were prepared with the powder of Compound 1 sifted and well ground in a mortar.
At baseline examination, main indicators of the skin condition of the hands and face in the groups were recorded, integral index for aggregate characteristics was calculated (dryness, wrinkling, superficial vascular fascicles, the intensity of subcutaneous vascular pattern, pigmentation—the intensity of color, the number of pigment spots and their total area). Preliminarily, each subject was tested for allergic skin reaction with the most concentrated formulation. No allergic reactions have been identified. In one group, only solution of Phenotropil was used in the morning and evening, applying a small amount (like a regular lotion) of the solution on cosmetic cotton pads and wiping the face and hands. In the other groups, this procedure was carried out before applying the Phenotropil-containing cream. The results of the baseline evaluation in each group were taken for 100.0%.

[5] = brain, read-out: Contents of Phenotropil in brain
[6] = heart, read-out: Contents of Phenotropil in heart
[7] = kidney, read-out: Contents of Phenotropil in kidney
[8] = liver, read-out: Contents of Phenotropil in liver
[9] = abstinent rats, 7-month alcoholism, 200 mg/kg, day 3
[10] = abstinent rats, 7-month alcoholism, 200 mg/kg, day 4
[11] = after-effect of 45-day course 100 mg/kg, 1st day
[12] = after-effect of 45-day course 100 mg/kg, 2nd day
[13] = after-effect of 45-day course 100 mg/kg, 3rd day
[14] = rats, 4-month alcoholism, 100 mg/kg, 45th day of administration

Compound: NC(=O)CN1CC(c2ccccc2)CC1=O (racemic) [Compound 1, (RS)-2-(2-oxo-4-phenylpyrrolidine-1-yl)acetamide]
- Kt (trigger transmission coefficient) (mice [1]; HEF mice): 3.3 ± 0.3
- Number of compartment explorations (mice [1]; HEF mice): 4.3 ± 0.4 //
- Number of surveillances (mice [1]; HEF mice): 1.3 ± 0.2
- Kt (trigger transmission coefficient) (mice [1]; LEF mice): 3.1 ± 0.35
- Number of compartment explorations (mice [1]; LEF mice): 5.0 ± 0.5 //
- Number of surveillances (mice [1]; LEF mice): 1.6 ± 0.2
- Kt (trigger transmission coefficient) (mice [1]; population as a whole): 3.2 ± 0.45
- Number of compartment explorations (mice [1]; population as a whole): 4.5 ± 0.7 //
- Number of surveillances (mice [1]; population as a whole): 1.4 ± 0.2
- increase of NSP70 level in the myocardium vs Ns control (HSP70; 25 mg/kg): 38%
- increase of NSP70 content in the heart vs untreated control (HSP70; 25 mg/kg): 65%
- increase of NSP70 level in the myocardium vs Ns control (HSP70; 50 mg/kg): 41.4%
- increase of NSP70 content in the heart vs untreated control (HSP70; 50 mg/kg): 82%
- increase of NSP70 level in the myocardium vs Ns control (HSP70; 100 mg/kg): 62%
- increase of NSP70 content in the heart vs untreated control (HSP70; 100 mg/kg): 73%
- increase of NSP70 level in the myocardium vs Ns control (HSP70; 300 mg/kg): 89.7%
- increase of NSP70 content in the heart vs untreated control (HSP70; 300 mg/kg): 273%
- HSP 70 in myocardium (HSP70; 25 mg/kg i.p., normal conditions): 0.18 ± 0.011 ng/mg total protein
- HSP 70 in myocardium (HSP70; 50 mg/kg i.p., normal conditions): 0.20 ± 0.014 ng/mg total protein
- HSP 70 in myocardium (HSP70; 100 mg/kg i.p., normal conditions): 0.19 ± 0.008 ng/mg total protein
- HSP 70 in myocardium (HSP70; 300 mg/kg i.p., normal conditions): 0.41 ± 0.016 ng/mg total protein
- HSP 70 in myocardium (HSP70; Ns + 25 mg/kg i.p.): 0.40 ± 0.02 ng/mg total protein
- HSP 70 in myocardium (HSP70; Ns + 50 mg/kg i.p.): 0.41 ± 0.03 ng/mg total protein
- HSP 70 in myocardium (HSP70; Ns + 100 mg/kg i.p.): 0.47 ± 0.02 ng/mg total protein
- HSP 70 in myocardium (HSP70; Ns + 300 mg/kg i.p.): 0.55 ± 0.03 ng/mg total protein
- concentration at 0.25 h [2, 5]: 1600 ± 200 ng/g
- concentration at 0.5 h [2, 5]: 2000 ± 300 ng/g
- concentration at 1 h [2, 5]: 6400 ± 800 ng/g
- concentration at 1.5 h [2, 5]: 4000 ± 600 ng/g
- concentration at 2 h [2, 5]: 1200 ± 300 ng/g
- concentration at 4 h [2, 5]: 400 ± 200 ng/g
- concentration at 0.25 h [2, 6]: 3700 ± 600 ng/g
- concentration at 0.5 h [2, 6]: 7900 ± 900 ng/g
- concentration at 1 h [2, 6]: 10100 ± 1000 ng/g
- concentration at 1.5 h [2, 6]: 14300 ± 1300 ng/g
- concentration at 2 h [2, 6]: 12600 ± 1200 ng/g
- concentration at 4 h [2, 6]: 8400 ± 1000 ng/g
- concentration at 6 h [2, 6]: 4400 ± 800 ng/g
- concentration at 0.25 h [2, 7]: 33200 ± 3400 ng/g
- concentration at 0.5 h [2, 7]: 37500 ± 4000 ng/g
- concentration at 1 h [2, 7]: 55700 ± 5800 ng/g
- concentration at 1.5 h [2, 7]: 50400 ± 6000 ng/g
- concentration at 2 h [2, 7]: 37200 ± 4100 ng/g
- concentration at 4 h [2, 7]: 28000 ± 3200 ng/g
- concentration at 6 h [2, 7]: 16000 ± 2100 ng/g
- concentration at 8 h [2, 7]: 10100 ± 1300 ng/g
- concentration at 0.25 h [2, 8]: 25600 ± 2400 ng/g
- concentration at 0.5 h [2, 8]: 30100 ± 4300 ng/g
- concentration at 1 h [2, 8]: 75800 ± 8200 ng/g
- concentration at 1.5 h [2, 8]: 67700 ± 7100 ng/g
- concentration at 2 h [2, 8]: 59600 ± 5400 ng/g
- concentration at 4 h [2, 8]: 30200 ± 3400 ng/g
- concentration at 6 h [2, 8]: 17700 ± 2100 ng/g
- concentration at 8 h [2, 8]: 11400 ± 1600 ng/g
- time after which compound is not detectable (brain, liver and kidneys as printed) [2]: 6 h
- time of complete elimination from the heart [2]: 8 h
- time of first detection in brain, heart, liver and kidneys [2]: 15 min
- time of maximum concentration in brain, liver and kidneys [2]: in an hour
- time of maximum concentration in the heart [2]: 1 hour 50 minutes
- reduction of duration of tremor (mice [3]; 200 mg/kg): 63%
- reduction of duration of tremor (mice [3]; 300 mg/kg): 50%
- Duration of tremor (mice [3]; 200 mg/kg): 153 ± 27 s
- Duration of tremor (mice [3]; 300 mg/kg): 208 ± 36 s
- LD50 (mice [4]): 800 mg/kg
- Alcohol consumption (rats; [9]): 4.8 ± 0.8 mL/day
- Alcohol consumption vs control (rats; [9]): −58.6%
- Alcohol consumption (rats; [10]): 2.4 ± 0.7 mL/day
- Alcohol consumption vs control (rats; [10]): −74.0%
- Alcohol consumption (rats; abstinent rats, 7-month alcoholism, 200 mg/kg, day 14): 0.0 ** ml/day
- Alcohol consumption (rats; [11]): 3.3 ± 1.1 mL/day
- Water consumption (rats; [11]): 26.7 ± 3.9 mL/day
- Alcohol consumption (rats; [12]): 0.0 ** ml/day
- Water consumption (rats; [12]): 20.2 ± 3.3 mL/day
- Alcohol consumption (rats; [13]): 0.0 ** ml/day
- Water consumption (rats; [13]): 21.2 ± 3.5 mL/day
- Alcohol consumption (rats; [14]): 10.5 ± 4.2 mL/day
- Water consumption (rats; [14]): 24.0 ± 5.9 mL/day
- subjects with mild morning facial swelling (women; cream applied less than two hours before bedtime): 18.0%
- Efficacy in % relative to baseline control (skin aging) (women; 50 mg + “Gerantol” cream 100 g): 132.0 * %
- Efficacy in % (skin aging) (women; 50 mg + “Lux” cream 100 g): 167.0 * %
- Efficacy expressed in % (age-related changes of blood vessels and joints) (women; 100 mg + 100 g of cream base): 211* %
- Efficacy in % relative to baseline control (skin aging) (women; 100 mg + “Gerantol” cream 100 g): 205.0 * %
- Efficacy in % (skin aging) (women; 100 mg + “Lux” cream 100 g): 210.0 * %
- Efficacy expressed in % (skin aging) (women; 100 mg + “Vecher” cream 100 g): 317* %
- Efficacy expressed in % (age-related changes of blood vessels and joints) (women; 200 mg + 100 g of cream base): 219* %
- Efficacy in % relative to baseline control (skin aging) (women; 200 mg + “Gerantol” cream 100 g): 251.0 * %
- Efficacy in % (skin aging) (women; 200 mg + “Lux” cream 100 g): 240.0 * %
- Efficacy expressed in % (skin aging) (women; 200 mg + “Vecher” cream 100 g): 280* %
- Efficacy expressed in % (age-related changes of blood vessels and joints) (women; 300 mg + 100 g of cream base): 174* %
- Efficacy in % relative to baseline control (skin aging) (women; 300 mg + “Gerantol” cream 100 g): 277.0 * %
- Efficacy in % (skin aging) (women; 300 mg + “Lux” cream 100 g): 280.0 * %
- Efficacy expressed in % (skin aging) (women; 300 mg + “Vecher” cream 100 g): 249* %
- Efficacy in % (skin aging) (women; aqueous solution 0.1%): 212.0* %
- Efficacy in % (skin aging) (women; cream, 50 mg per 100 g of the base): 140.0 * %
- Efficacy in % (skin aging) (women; cream, 100 mg per 100 g of the base): 180.0 * %
- Efficacy in % (skin aging) (women; cream, 200 mg per 100 g of the base): 187.0 * %
- Efficacy in % (skin aging) (women; cream, 300 mg per 100 g of the base): 200.0 * %

— patent US20140315972A1, “RS)-2-(2-oxo-4-phenylpyrrolidin-1-yl)acetamide compound having modulatory activity with a commensurate effect, pharmaceutical substance (variants) and its application, composition (variants) thereof” (priority 2011, published 2014)
